Measurements published in patent publication US20240391926A1, “SPIROINDOLINONE COMPOUNDS AS Kv1.3 POTASSIUM SHAKER CHANNEL BLOCKERS” (D.E. Shaw Research, LLC, priority 2021, published 2024).
pIC50: −log10 of the molar value.

Target: T1, Kv1.3 potassium channel (Homo sapiens, UniProt P22001)
T1 construct: expressed in transfected cells
Assay: Kv1.3 potassium channel blocker activity, automated whole-cell patch clamp (Patchliner) in CHO-K1 cells stably expressing Kv1.3
Type: cell-based
Conditions: 30 nM-100 μM
Description: This assay is used to evaluate the disclosed compounds' activities as Kv1.3 potassium channel blockers.
CHO-K1 cells stably expressing Kv1.3 were grown in DMEM containing 10% heat-inactivated FBS, 1 mM sodium pyruvate, 2 mM L-glutamine, and G418 (500 μg/ml). Cells were grown in culture flasks at 37° C. in a 5% CO2-humidified incubator.
The cells were bathed in an extracellular solution containing 140 mM NaCl, 4 mM KCl, 2 mM CaCl2), 1 mM MgCl2, 5 mM glucose, 10 mM HEPES; pH adjusted to 7.4 with NaOH; 295-305 mOsm. The internal solution contained 50 mM KCl, 10 mM NaCl, 60 mM KF, 20 mM EGTA, 10 mM HEPES; pH adjusted to 7.2 with KOH; 285 mOsm. All compounds were dissolved in DMSO at 30 mM. Compound stock solutions were freshly diluted with external solution to concentrations of 30 nM, 100 nM, 300 nM, 1 μM, 3 μM, 10 μM, 30 μM and 100 μM. The highest content of DMSO (0.3%) was present in 100 μM.
The currents were evoked by applying 100 ms depolarizing pulses from −90 mV (holding potential) to +40 mV were applied with 0.1 Hz frequency. Control (compound-free) and compound pulse trains for each compound concentration applied contained 20 pulses. 10-second breaks were used between pulse trains (see Table A below).
Whole-cell current recordings and compound application were enabled by means of an automated patch clamp platform Patchliner (Nanion Technologies GmbH). EPC 10 patch clamp amplifier (HEKA Elektronik Dr. Schulze GmbH) along with Patchmaster software (HEKA Elektronik Dr. Schulze GmbH) was used for data acquisition. Data were sampled at 10 kHz without filtering. Passive leak currents were subtracted online using a P/4 procedure (HEKA Elektronik Dr. Schulze GmbH). Increasing compound concentrations were applied consecutively to the same cell without washouts in between. Total compound incubation time before the next pulse train was not longer than 10 seconds. Peak current inhibition was observed during compound equilibration.
AUC and peak values were obtained with Patchmaster (HEKA Elektronik Dr. Schulze GmbH). To determine IC50, the last single pulse in the pulse train corresponding to a given compound concentration was used. Obtained AUC and peak values in the presence of compound were normalized to control values in the absence of compound. Using Origin (OridinLab), IC50 was derived from data fit to Hill equation: Icompound/Icontrol=(100−A)/(1+([compound]/IC50)nH)+A, where IC50 value is the concentration at which current inhibition is half-maximal, [compound] is the applied compound concentration, A is the fraction of current that is not blocked and nH is the Hill coefficient.

T1 sequence (P22001 whole entry): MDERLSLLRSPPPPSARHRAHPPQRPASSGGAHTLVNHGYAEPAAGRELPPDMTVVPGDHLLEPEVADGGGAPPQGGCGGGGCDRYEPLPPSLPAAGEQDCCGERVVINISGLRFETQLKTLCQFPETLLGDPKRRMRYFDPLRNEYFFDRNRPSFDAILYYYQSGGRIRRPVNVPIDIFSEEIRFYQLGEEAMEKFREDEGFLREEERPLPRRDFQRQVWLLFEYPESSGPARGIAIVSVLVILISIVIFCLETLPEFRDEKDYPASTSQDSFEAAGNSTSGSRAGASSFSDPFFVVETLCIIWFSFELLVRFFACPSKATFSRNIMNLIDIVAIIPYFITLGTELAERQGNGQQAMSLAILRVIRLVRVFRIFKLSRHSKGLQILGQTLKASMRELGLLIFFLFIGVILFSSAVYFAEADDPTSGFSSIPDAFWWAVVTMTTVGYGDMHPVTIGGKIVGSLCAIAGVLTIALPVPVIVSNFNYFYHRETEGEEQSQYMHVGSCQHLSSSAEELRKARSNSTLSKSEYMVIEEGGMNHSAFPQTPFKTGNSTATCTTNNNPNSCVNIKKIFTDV

SMILES | pIC50
C[C@H]1C[C@]2(CN1C(=O)CO)C(=O)Nc1cc(Cl)c(Cl)cc12 (single isomer, unassigned; isomer 1) [Compound 123, 5,6-dichloro-1′-(2-hydroxyacetyl)-5′-methyl-1H-spiro[indole-3,3′-pyrrolidin]-2-one isomer 1] | > 4.52
O=C([C@@H]1CNC[C@@H]1O)N1CC[C@]2(C1)C(=O)Nc1cc(Cl)c(Cl)cc12 (single isomer, unassigned) [Compound 1] | > 6.00
O=C([C@@H]1CC[C@H](O)C1)N1CC[C@]2(C1)C(=O)Nc1cc(Cl)c(Cl)cc12 (single isomer, unassigned; isomer 4) [Compound 66] | > 5.52
C[C@@H]1CN(C(=O)CO)CC12C(=O)Nc1cc(Cl)c(Cl)cc12 (single isomer, unassigned; diastereoisomer 1) [Compound 130, 5,6-dichloro-1′-(2-hydroxyacetyl)-4′-methylspiro[indoline-3,3′-pyrrolidin]-2-one diastereoisomer 1] | > 4.52
COC[C@@H]1C[C@@H](C(=O)N2CC[C@]3(C2)C(=O)Nc2cc(Cl)c(Cl)cc23)CN1 [Compound 110, (3S)-5,6-dichloro-1′-[(3R,5S)-5-(methoxymethyl)pyrrolidine-3-carbonyl]-1H-spiro[indole-3,3′-pyrrolidin]-2-one] | > 6.00
O=C([C@H]1CC[C@@H](O)[C@H](O)C1)N1CC[C@]2(C1)C(=O)Nc1cc(Cl)c(Cl)cc12 (single isomer, unassigned; isomer 1) [Compound 107] | > 6.00
O=C1Nc2cc(Cl)c(Cl)cc2[C@]12CCN(C(=O)[C@H]1CC[C@@H](O)CC1)C2 [Compound 51, (S)-5,6-dichloro-1′-((1s,4R)-4-hydroxycyclohexane-1-carbonyl)spiro[indoline-3,3′-pyrrolidin]-2-one] | > 5.52
O=C1CC(C(=O)N2CC[C@]3(C2)C(=O)Nc2cc(Cl)c(Cl)cc23)CN1 (single isomer, unassigned; isomer 2) [Compound 75] | > 5.52
O=C([C@H]1CCCO1)N1CC[C@]2(C1)C(=O)Nc1cc(Cl)c(Cl)cc12 [Compound 20, (S)-5,6-dichloro-1′-((R)-tetrahydrofuran-2-carbonyl)spiro[indoline-3,3′-pyrrolidin]-2-one] | > 5.00
NS(=O)(=O)N1CC[C@]2(C1)C(=O)Nc1cc(Cl)c(Cl)cc12 [Compound 142, (S)-5,6-dichloro-2-oxospiro[indoline-3,3′-pyrrolidine]-1′-sulfonamide] | > 5.52
C[C@@H]1N(C(=O)CO)CCC12C(=O)Nc1cc(Cl)c(Cl)cc12 (single isomer, unassigned; diastereoisomer 1) [Compound 133, 5,6-dichloro-1′-(2-hydroxyacetyl)-2′-methylspiro[indoline-3,3′-pyrrolidin]-2-one diastereoisomer 1] | > 5.52
O=C([C@H]1CC[C@H](O)[C@@H](O)C1)N1CC[C@]2(C1)C(=O)Nc1cc(Cl)c(Cl)cc12 (single isomer, unassigned; isomer 2) [Compound 108] | > 5.52
Cn1nc(C(=O)N2CC[C@]3(C2)C(=O)Nc2cc(Cl)c(Cl)cc23)cc1N [Compound 41, (S)-1′-(5-amino-1-methyl-1H-pyrazole-3-carbonyl)-5,6-dichlorospiro[indoline-3,3′-pyrrolidin]-2-one] | > 5.00
O=C([C@H]1CCCN1)N1CC[C@]2(C1)C(=O)Nc1cc(Cl)c(Cl)cc12 [Compound 23, (S)-1′-(D-prolyl)-5,6-dichlorospiro[indoline-3,3′-pyrrolidin]-2-one] | > 5.52
O=C([C@@H]1CCOC1)N1CC[C@]2(C1)C(=O)Nc1cc(Cl)c(Cl)cc12 [Compound 24, (S)-5,6-dichloro-1′-((R)-tetrahydrofuran-3-carbonyl)Spiro[indoline-3,3′-pyrrolidin]-2-one] | > 5.52
O=C(c1nnc[nH]1)N1CC[C@]2(C1)C(=O)Nc1cc(Cl)c(Cl)cc12 [Compound 136, (S)-5,6-dichloro-1′-(1H-1,2,4-triazole-3-carbonyl)spiro[indoline-3,3′-pyrrolidin]-2-one] | > 6.00

Further lines, results first:

pIC50 | SMILES
> 6.00 | N[C@H](CO)C(=O)N1CC[C@]2(C1)C(=O)Nc1cc(Cl)c(Cl)cc12 [Compound 43, (S)-1′-(D-seryl)-5,6-dichlorospiro[indoline-3,3′-pyrrolidin]-2-one]
> 6.00 | O=C(CO)N1CC[C@]2(C1)C(=O)Nc1cc(Cl)c(Br)cc12 [Compound 118, (S)-5-bromo-6-chloro-1′-(2-hydroxyacetyl)spiro[indoline-3,3′-pyrrolidin]-2-one]
> 5.52 | O=C(C(CO)CO)N1CC[C@]2(C1)C(=O)Nc1cc(Cl)c(Cl)cc12 [Compound 19, (S)-5,6-dichloro-1′-(3-hydroxy-2-(hydroxymethyl)propanoyl)spiro[indoline-3,3′-pyrrolidin]-2-one]
> 5.52 | NC[C@H](O)C(=O)N1CC[C@]2(C1)C(=O)Nc1cc(Cl)c(Cl)cc12 [Compound 54, (S)-1′-((S)-3-amino-2-hydroxypropanoyl)-5,6-dichlorospiro[indoline-3,3′-pyrrolidin]-2-one]
> 5.52 | CC[C@H](O)C(=O)N1CC[C@]2(C1)C(=O)Nc1cc(Cl)c(Cl)cc12 [Compound 91, (S)-5,6-dichloro-1′-((S)-2-hydroxybutanoyl)spiro[indoline-3,3′-pyrrolidin]-2-one]
> 5.52 | O=C(Cc1cn[nH]c1)N1CC[C@]2(C1)C(=O)Nc1cc(Cl)c(Cl)cc12 [Compound 72, (S)-1′-(2-(1H-pyrazol-4-yl)acetyl)-5,6-dichlorospiro[indoline-3,3′-pyrrolidin]-2-one]
> 5.52 | O=C([C@@H]1CC[C@](O)(CO)C1)N1CC[C@]2(C1)C(=O)Nc1cc(Cl)c(Cl)cc12 (single isomer, unassigned; isomer 2) [Compound 98]
> 6.00 | O=C(C1C[C@H](O)[C@@H](O)C1)N1CC[C@]2(C1)C(=O)Nc1cc(Cl)c(Cl)cc12 (relative stereo) [Compound 106]
> 6.00 | O=C([C@@H]1C[C@@H]1CO)N1CC[C@]2(C1)C(=O)Nc1cc(Cl)c(Cl)cc12 (relative stereo) [Compound 151, (S)-5,6-dichloro-1′-(1R,2S)-rel-2-(hydroxymethyl)cyclopropane-1-carbonyl)spiro[indoline-3,3′-pyrrolidin]-2-one]
> 5.52 | C[C@@H](O)CC(=O)N1CC[C@]2(C1)C(=O)Nc1cc(Cl)c(Cl)cc12 [Compound 89, (S)-5,6-dichloro-1′-((R)-3-hydroxybutanoyl)spiro[indoline-3,3′-pyrrolidin]-2-one]
> 5.52 | CC(C)C[C@H](N)C(=O)N1CC[C@]2(C1)C(=O)Nc1cc(Cl)c(Cl)cc12 [Compound 45, (S)-1′-(L-leucyl)-5,6-dichlorospiro[indoline-3,3′-pyrrolidin]-2-one]
> 6.00 | NC[C@@H](O)C(=O)N1CC[C@]2(C1)C(=O)Nc1cc(Cl)c(Cl)cc12 [Compound 55, (S)-1′-((R)-3-amino-2-hydroxypropanoyl)-5,6-dichlorospiro[indoline-3,3′-pyrrolidin]-2-one]
> 6.00 | O=C(CCO)N1CC[C@]2(C1)C(=O)Nc1cc(Cl)c(Cl)cc12 [Compound 156, (S)-5,6-dichloro-1′-(3-hydroxypropanoyl)spiro[indoline-3,3′-pyrrolidin]-2-one]
> 5.52 | CC(C)(O)C(=O)N1CC[C@]2(C1)C(=O)Nc1cc(Cl)c(Cl)cc12 [Compound 86, (S)-5,6-dichloro-1′-(2-hydroxy-2-methylpropanoyl)spiro[indoline-3,3′-pyrrolidin]-2-one]
> 5.00 | CC(C)(O)CC(=O)N1CC[C@]2(C1)C(=O)Nc1cc(Cl)c(Cl)cc12 [Compound 87, (S)-5,6-dichloro-1′-(3-hydroxy-3-methylbutanoyl)spiro[indoline-3,3′-pyrrolidin]-2-one]
> 5.00 | O=C(C[C@@H](O)CO)N1CC[C@]2(C1)C(=O)Nc1cc(Cl)c(Cl)cc12 [Compound 77, (S)-5,6-dichloro-1′-((R)-3,4-dihydroxybutanoyl)spiro[indoline-3,3′-pyrrolidin]-2-one]
> 5.52 | O=C(Cc1cc[nH]n1)N1CC[C@]2(C1)C(=O)Nc1cc(Cl)c(Cl)cc12 [Compound 73, (S)-1′-(2-(1H-pyrazol-3-yl)acetyl)-5,6-dichlorospiro[indoline-3,3′-pyrrolidin]-2-one]
